Assay results published in patent US20100184815A1 (priority 2008, published 2010).

Key:
Type in all cases: cell-based
Gal-4 hPPARα = molecular target: T1, Gal-4 hPPARα (Homo sapiens, UniProt Q07869); test: Gal4-hPPARα transient transfection reporter assay in Cos cells; conditions: luciferase reporter, 24 hours with compound, scale 1-5, read-out: Gal-4 hPPAR α EC50 (scaled number)
T1 construct: Plasmids pGal4-hPPARα, pGal4-hPPARγ, pGal4-hPPARδ and pG5-TK-pGL3 were constructed as previously described by Staels, Bart, et al., Nature 1998 Jun; 25
T1 sequence (Q07869 200-468 limits assumed): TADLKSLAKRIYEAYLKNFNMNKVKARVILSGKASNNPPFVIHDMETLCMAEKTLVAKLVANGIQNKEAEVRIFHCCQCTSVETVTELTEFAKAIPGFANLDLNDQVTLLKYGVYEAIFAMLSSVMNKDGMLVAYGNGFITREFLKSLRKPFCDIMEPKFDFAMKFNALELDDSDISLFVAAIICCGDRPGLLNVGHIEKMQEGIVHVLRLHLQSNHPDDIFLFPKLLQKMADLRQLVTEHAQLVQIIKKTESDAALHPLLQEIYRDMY
Method: (§1) Construction of recombinant plasmids. Plasmids pGal4-hPPARα, pGal4-hPPARγ, pGal4-hPPARδ and pG5-TK-pGL3 were constructed as previously described by Staels, Bart, et al., Nature 1998 Jun. 25; 393 (6687): 790-793, by Staels (Institut Pasteur de Lille, FR).
(§2) Transient transfection assays. Cos cells were seeded in 60-mm dishes at a density of 5.5×10^5 cells/dish in Dulbecco's modified Eagle's medium (DMEM) supplemented with 10% fetal calf serum (FCS) and incubated at 37° C. for 24 hours before transfection. Cells were transfected in Opti-MEM (Gibco; Invitrogen, Carlsbad, Calif.) without FCS for 3 hours at 37° C., using polyethylenimine, with reporter and expression plasmids. The plasmid pBluescript (Stratagene, La Jolla, Calif.) was used as carrier DNA to set the final amount of DNA to 5.5 μg/dish. The pCMV-b-galactosidase expression plasmid was cotransfected as a control for transfection efficiency. Transfection was stopped by the addition of DMEM supplemented with 10% FCS, and cells were then incubated at 37° C. After 16 hours, cells were trypsinized and seeded in 96-well plates at the density of 2×10^4 cells/well and incubated for 6 hours in 10% FCS-containing DMEM. Cells were then incubated for 24 hours in DMEM containing 0.2% FCS and increasing concentrations of the compound tested or vehicle (DMSO). At the end of the experiment, cells were washed once with ice-cold PBS, lysed and the luciferase and b-galactosidase assays were performed in a luminometer and spectrophotomer. Transfection efficiencies were normalized with the b-galactosidase activity assay. Half-maximal effective concentration (EC50) was estimated using Prism software (GraphPad). All transfection experiments were performed at least three times.
(§3) In the following tables, proprietary compound EC50 values for hPPAR α, β, δ and γ are shown. The EC50 value is the concentration of a drug that induces a response halfway between the baseline and maximum, and is commonly used as a measure of drug potency. EC50 values are reported on a scale of 1 through 5, wherein the value scale is defined for each receptor as follows: […]

Gal-4 hPPARβ/δ = molecular target: T2, Gal-4 hPPARβ/δ (Homo sapiens, UniProt Q03181); test: Gal4-hPPARδ transient transfection reporter assay in Cos cells; conditions: luciferase reporter, 24 hours with compound, scale 1-5, read-out: Gal-4 hPPAR β/δ EC50 (scaled number)
T2 construct: Plasmids pGal4-hPPARα, pGal4-hPPARγ, pGal4-hPPARδ and pG5-TK-pGL3 were constructed as previously described by Staels, Bart, et al., Nature 1998 Jun; 25
T2 sequence (Q03181 171-441 limits assumed): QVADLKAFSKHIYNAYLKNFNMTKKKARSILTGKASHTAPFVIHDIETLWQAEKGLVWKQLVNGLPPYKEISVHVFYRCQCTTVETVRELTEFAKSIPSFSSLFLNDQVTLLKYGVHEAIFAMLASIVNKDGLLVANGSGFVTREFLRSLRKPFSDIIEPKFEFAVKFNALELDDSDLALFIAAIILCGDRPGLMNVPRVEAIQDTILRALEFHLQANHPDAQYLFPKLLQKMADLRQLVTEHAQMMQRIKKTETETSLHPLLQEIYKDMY
Method: as §1, §2, §3

Gal-4 hPPARγ = molecular target: T3, Gal-4 hPPARγ (Homo sapiens, UniProt P37231); test: Gal4-hPPARγ transient transfection reporter assay in Cos cells; conditions: luciferase reporter, 24 hours with compound, scale 1-5, read-out: Gal-4 hPPAR γ EC50 (scaled number)
T3 construct: Plasmids pGal4-hPPARα, pGal4-hPPARγ, pGal4-hPPARδ and pG5-TK-pGL3 were constructed as previously described by Staels, Bart, et al., Nature 1998 Jun; 25
T3 sequence (P37231 238-505 limits assumed): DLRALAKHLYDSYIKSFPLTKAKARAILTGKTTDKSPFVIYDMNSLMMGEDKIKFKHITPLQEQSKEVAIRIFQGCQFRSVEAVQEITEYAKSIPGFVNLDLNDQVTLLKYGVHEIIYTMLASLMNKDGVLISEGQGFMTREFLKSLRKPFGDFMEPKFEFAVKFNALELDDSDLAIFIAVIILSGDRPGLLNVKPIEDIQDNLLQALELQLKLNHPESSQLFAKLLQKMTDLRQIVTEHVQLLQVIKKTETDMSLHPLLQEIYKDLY
Method: as §1, §2, §3

Row | EC50 (Gal-4 hPPARα) | EC50 (Gal-4 hPPARβ/δ) | EC50 (Gal-4 hPPARγ) | SMILES
1 | 1 to 50 nM | > 1000 nM | 201 to 999 nM | CC(C)(Sc1ccc(C(=O)OCc2cnn(Cc3ccc(C(C)(C)C)cc3)c2)cc1)C(=O)O [Compound 6, 2-(4-(((1-(4-tert-butylbenzyl)-1H-pyrazol-4-yl)methoxy)carbonyl)phenylthio)-2-methylpropanoic acid]
2 | 51 to 200 nM | > 1000 nM | > 1000 nM | COc1ccc(Cn2cc(COC(=O)c3ccc(SC(C)(C)C(=O)O)cc3)cn2)cc1 [Compound 8, 2-(4-(((1-(4-methoxybenzyl)-1H-pyrazol-4-yl)methoxy)carbonyl)phenylthio)-2-methylpropanoic acid]
3 | 51 to 200 nM | 1 to 50 nM | 201 to 999 nM | Cc1ccc(-n2cc(COC(=O)c3ccc(OC(C)(C)C(=O)O)cc3)c(-c3ccccc3)n2)cc1 [Compound 17, 2-methyl-2-(4-(((3-phenyl-1-p-tolyl-1H-pyrazol-4-yl)methoxy)carbonyl)phenoxy)propanoic acid]
4 | 1 to 50 nM | 201 to 999 nM | 201 to 999 nM | CC(C)(Sc1ccc(C(=O)OCc2cnn(-c3ccc(C(F)(F)F)cc3)c2)cc1)C(=O)O [Compound 18, 2-methyl-2-(4-(((1-(4-(trifluoromethyl)phenyl)-1H-pyrazol-4-yl)methoxy)carbonyl)phenylthio)propanoic acid]
5 | 1 to 50 nM | > 1000 nM | > 1000 nM | CSc1ccc(Cn2cc(COC(=O)c3ccc(SC(C)(C)C(=O)O)cc3)cn2)cc1 [Compound 20, 2-methyl-2-(4-(((1-(4-(methylthio)benzyl)-1H-pyrazol-4-yl)methoxy)carbonyl)phenylthio)propanoic acid]
6 | 51 to 200 nM | > 1000 nM | > 1000 nM | CC(C)(Sc1ccc(C(=O)OCc2cnn(Cc3ccc(-c4ccccc4)cc3)c2)cc1)C(=O)O [Compound 22, 2-(4-(((1-(biphenyl-4-ylmethyl)-1H-pyrazol-4-yl)methoxy)carbonyl)phenylthio)-2-methylpropanoic acid]
7 | 51 to 200 nM | > 1000 nM | > 1000 nM | CC(C)(Sc1ccc(C(=O)OCc2cnn(Cc3ccc(F)c(F)c3)c2)cc1)C(=O)O [Compound 24, 2-(4-(((1-(3,4-difluorobenzyl)-1H-pyrazol-4-yl)methoxy)carbonyl)phenylthio)-2-methylpropanoic acid]
8 | 1 to 50 nM | > 1000 nM | > 1000 nM | CC(C)(Sc1ccc(C(=O)OCc2cnn(Cc3ccc4ccccc4c3)c2)cc1)C(=O)O [Compound 26, 2-methyl-2-(4-(((1-(naphthalen-2-ylmethyl)-1H-pyrazol-4-yl)methoxy)carbonyl)phenylthio)propanoic acid]
9 | 1 to 50 nM | > 1000 nM | > 1000 nM | CC(C)(Sc1ccc(C(=O)OCc2cnn(Cc3ccc4c(c3)C(C)(C)CCC4(C)C)c2)cc1)C(=O)O [Compound 29, 2-methyl-2-(4-(((1-((5,5,8,8-tetramethyl-5,6,7,8-tetrahydronaphthalen-2-yl)methyl)-1H-pyrazol-4-yl)methoxy)carbonyl)phenylthio)propanoic acid]
10 | 1 to 50 nM | > 1000 nM | > 1000 nM | CC(C)(Sc1ccc(C(=O)OCc2cnn(Cc3cccc(C(F)(F)F)c3)c2)cc1)C(=O)O [Compound 30, 2-methyl-2-(4-(((1-(3-(trifluoromethyl)benzyl)-1H-pyrazol-4-yl)methoxy)carbonyl)phenylthio)propanoic acid]
11 | 1 to 50 nM | > 1000 nM | > 1000 nM | CC(C)(Sc1ccc(C(=O)OCc2cnn(Cc3ccc(OC(F)(F)F)cc3)c2)cc1)C(=O)O [Compound 32, 2-methyl-2-(4-(((1-(4-(trifluoromethoxy)benzyl)-1H-pyrazol-4-yl)methoxy)carbonyl)phenylthio)propanoic acid]
12 | 51 to 200 nM | > 1000 nM | > 1000 nM | CC(C)(Sc1ccc(C(=O)OCc2cn(Cc3ccc(SC(F)(F)F)cc3)nn2)cc1)C(=O)O [Compound 71, 2-methyl-2-(4-(((1-(4-(trifluoromethylthio)benzyl)-1H-1,2,3-triazol-4-yl)methoxy)carbonyl)phenylthio)propanoic acid]
13 | 51 to 200 nM | > 1000 nM | > 1000 nM | CC(C)(Sc1ccc(C(=O)OCc2cn(Cc3ccc(OC(F)(F)F)cc3)nn2)cc1)C(=O)O [Compound 73, 2-methyl-2-(4-(((1-(4-(trifluoromethoxy)benzyl)-1H-1,2,3-triazol-4-yl)methoxy)carbonyl)phenylthio)propanoic acid]
14 | 201 to 999 nM | > 1000 nM | > 1000 nM | Cc1ccc(Cn2cc([C@H](C)OC(=O)c3ccc(SC(C)(C)C(=O)O)cc3)nn2)cc1 [Compound 85, (S)-2-methyl-2-(4-((1-(1-(4-methylbenzyl)-1H-1,2,3-triazol-4-yl)ethoxy)carbonyl)phenylthio)propanoic acid]
15 | 201 to 999 nM | > 1000 nM | > 1000 nM | C[C@H](OC(=O)c1ccc(SC(C)(C)C(=O)O)cc1)c1cn(Cc2ccc(C(F)(F)F)cc2)nn1 [Compound 97, (S)-2-methyl-2-(4-((1-(1-(4-(trifluoromethyl)benzyl)-1H-1,2,3-triazol-4-yl)ethoxy)carbonyl)phenylthio)propanoic acid]
16 | 51 to 200 nM | > 1000 nM | > 1000 nM | CC(C)(Sc1ccc(C(=O)OCc2cn(Cc3ccc(C(F)(F)F)cc3)nn2)cc1)C(=O)O [Compound 102, 2-methyl-2-(4-(((1-(4-(trifluoromethyl)benzyl)-1H-1,2,3-triazol-4-yl)methoxy)carbonyl)phenylthio)propanoic acid]
17 | 1 to 50 nM | > 1000 nM | 51 to 200 nM | C[C@@H](OC(=O)c1ccc(SC(C)(C)C(=O)O)cc1)c1cn(Cc2ccc(SC(F)(F)F)cc2)nn1 [Compound 136, 4-(1-Carboxy-1-methyl-ethylsulfanyl)-benzoic acid (R)-1-[1-(4-trifluoromethylsulfanyl-benzyl)-1H-1,2,3-triazol-4-yl]-ethyl ester]
18 | 51 to 200 nM | > 1000 nM | > 1000 nM | C[C@@H](OC(=O)c1ccc(SC(C)(C)C(=O)O)cc1)c1cn(Cc2ccc(OC(F)(F)F)cc2)nn1 [Compound 137, 4-(1-Carboxy-1-methyl-ethylsulfanyl)-benzoic acid (R)-1-[1-(4-trifluoromethoxy-benzyl)-1H-1,2,3-triazol-4-yl]-ethyl ester]
19 | 1 to 50 nM | > 1000 nM | > 1000 nM | C[C@H](Cc1cn(Cc2ccc(C(C)(C)C)cc2)nn1)OC(=O)c1ccc(SC(C)(C)C(=O)O)cc1 [Compound 138, 4-(1-Carboxy-1-methyl-ethylsulfanyl)-benzoic acid (R)-2-[1-(4-tert-butyl-benzyl)-1H-1,2,3-triazol-4-yl]-1-methyl-ethyl ester]

Row | SMILES | EC50 (Gal-4 hPPARα) | EC50 (Gal-4 hPPARβ/δ) | EC50 (Gal-4 hPPARγ)
20 | CC(C)(Oc1ccc(C(=O)OCc2cnn(Cc3ccc4c(c3)C(C)(C)CCC4(C)C)c2)cc1)C(=O)O [Compound 28] | 201 to 999 nM | > 1000 nM | > 1000 nM
